US20150352134A1, “COMPOSITION FOR TOPICAL SKIN APPLICATION CONTAINING GINSENOSIDE F2 DERIVED FROM HYDROPONIC GINSENG” (AMOREPACIFIC CORPORATION, priority 2012, published 2015)

How the values were obtained:
[1] = test system: prostaglandin generation in macrophagocytes collected from the abdominal cavity of a mouse; test: Prostaglandin generation inhibition in LPS-treated macrophagocytes (ELISA); assay type: cell-based; conditions: 100 μl of ginsenoside F2
Description: The inflammatory effect is evaluated in terms of the inhibitory effect on prostaglandin generation. Ginsenoside F2 is used to measure the effect on macrophagocytes. Firstly, macrophagocytes collected from the abdominal cavity of a mouse are treated with aspirin to have the final concentration of 500 µM, causing irreversible inhibition on the activity of cyclooxygenase (COX) remaining in the macrophagocytes. Then, 100 μl of the suspension is put in each well of a 96-well culture plate and cultured in an incubator under the conditions of 5% CO2 and 37° C. for 2 hours to immobilize the macrophagocytes on the surface of the container. Subsequently, the immobilized macrophagocytes are washed with PBS three times and used in the inflammatory improvement test. […] Then, the macrophagocytes are treated with 100 μl of ginsenoside F2, and the isolated prostaglandin is quantitatively analyzed by way of ELISA (Enzyme-Linked ImmunoSorbent Assey).
In this regard, the prostaglandin generation inhibitory activity of the ginsenoside F2 is determined by the reduced amount of prostaglandin generated in the LPS-treated group in comparison with the case of the control in terms of the percentage amount of the prostaglandin decreased by treatment with LPS and the sample, while the difference in the amount of the generated prostaglandin between the LPS-treated group and the control group is set to 100%.

Straphylococcus aureus = test: Antibacterial effect, MIC; assay type: cell-based, Staphylococcus aureus; conditions: 48 hours, 32°
Description: The antibacterial testing is carried out in order to evaluate the antibacterial effect of ginsenoside F2. The detailed testing method is as follows. Staphylococcus aureus, Escherichia coli, and pseudomonas aeruginosa strains are cultured with a tryptic soy broth, and candida albicans and aspergillus niger strains are cultured with sabouraud dextrose broth. The test bacterial liquid is the 1/100 (1/10 for candida albicans strain) diluted solution of the culture medium diluted with each medium. For aspergillus niger, the test bacterial liquid is the spore suspension prepared to 2×10^8 cfu/ml. 0.15 ml of the test bacterial liquid is added to 15 ml of each culture medium to prepare a well-blended diluted solution. 16 μl of the sample is put into each well on the first row of a 96-well plate, and 184 μl of the diluted solution is added to each well on the first row. Then, 100 μl of the diluted solution is put into each of the other wells. The mixed solution of the first row is sufficiently stirred, and 100 μl of the mixed solution is added to each well on the second row of the 96-well plate and stirred sufficiently. […] 48 hours later, the cell proliferation is determined by the turbidity index and microscopic observation to determine the minimum inhibitory concentration (MIC).

CC(C)=CCC[C@](C)(O[C@@H]1O[C@H](CO)[C@@H](O)[C@H](O)[C@H]1O)[C@H]1CC[C@]2(C)[C@@H]1[C@H](O)C[C@@H]1[C@@]3(C)CC[C@H](O[C@@H]4O[C@H](CO)[C@@H](O)[C@H](O)[C@H]4O)C(C)(C)[C@@H]3CC[C@]12C [Ginsenoside F2, ginsenoside F2]
prostaglandin generation (Blank = 100%) [1]: 24.2%
MIC (%) Straphylococcus aureus (Straphylococcus aureus): 0.07%
